Target: ATP-dependent translocase ABCB1 (Homo sapiens, UniProt P08183)
Assay: TP_TRANSPORTER: transepithelial transport (basal to apical) in LLC-MDR1 cells
Format: functional, cell-based
Details: pig

Chain of ATP-dependent translocase ABCB1 (P08183 whole entry): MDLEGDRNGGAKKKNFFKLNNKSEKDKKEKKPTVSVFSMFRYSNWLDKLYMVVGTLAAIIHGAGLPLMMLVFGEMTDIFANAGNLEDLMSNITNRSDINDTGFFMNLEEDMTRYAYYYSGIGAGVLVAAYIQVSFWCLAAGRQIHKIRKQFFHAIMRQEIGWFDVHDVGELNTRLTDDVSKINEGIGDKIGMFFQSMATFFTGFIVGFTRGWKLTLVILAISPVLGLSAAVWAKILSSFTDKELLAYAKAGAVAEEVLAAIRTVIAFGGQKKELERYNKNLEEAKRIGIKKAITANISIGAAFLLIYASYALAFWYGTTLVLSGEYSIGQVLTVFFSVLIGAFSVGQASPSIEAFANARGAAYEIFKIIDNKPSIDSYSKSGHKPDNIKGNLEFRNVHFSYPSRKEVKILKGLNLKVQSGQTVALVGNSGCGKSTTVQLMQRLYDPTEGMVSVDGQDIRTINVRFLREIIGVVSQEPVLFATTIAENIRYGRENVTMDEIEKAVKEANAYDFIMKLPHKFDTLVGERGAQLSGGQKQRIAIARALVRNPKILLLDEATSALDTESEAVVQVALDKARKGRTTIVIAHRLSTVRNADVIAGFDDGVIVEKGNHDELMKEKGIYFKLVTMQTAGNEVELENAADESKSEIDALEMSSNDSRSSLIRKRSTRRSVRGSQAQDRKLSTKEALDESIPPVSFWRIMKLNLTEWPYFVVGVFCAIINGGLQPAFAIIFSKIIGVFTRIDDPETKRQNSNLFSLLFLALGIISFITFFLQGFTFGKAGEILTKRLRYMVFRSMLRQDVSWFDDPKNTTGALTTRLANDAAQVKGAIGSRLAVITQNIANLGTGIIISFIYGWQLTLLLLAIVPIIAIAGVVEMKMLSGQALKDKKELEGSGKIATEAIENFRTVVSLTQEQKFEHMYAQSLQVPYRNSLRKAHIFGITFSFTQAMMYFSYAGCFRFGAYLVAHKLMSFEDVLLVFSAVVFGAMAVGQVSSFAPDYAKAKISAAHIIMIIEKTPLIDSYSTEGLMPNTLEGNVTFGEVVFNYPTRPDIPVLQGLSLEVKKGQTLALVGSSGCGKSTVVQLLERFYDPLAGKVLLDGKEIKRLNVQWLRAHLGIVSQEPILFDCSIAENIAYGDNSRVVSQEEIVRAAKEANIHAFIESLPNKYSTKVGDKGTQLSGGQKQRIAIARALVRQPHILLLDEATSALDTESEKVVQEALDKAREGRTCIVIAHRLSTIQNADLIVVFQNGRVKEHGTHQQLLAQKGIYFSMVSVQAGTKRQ

Question: `Clc1ccc(-c2cc(Cl)c(Cl)c(Cl)c2)cc1Cl` [POLYCHLORINATED BIPHENYL 126] was tested. Which Activity did it give?
Answer: Its Activity is “substrate [+]”.
